Experimental data: patent US12351855B2, “Bioelectronic circuits, systems and methods for preparing and using them” (priority 2019, dated 2025)
Non-standard residues stand in square brackets, D forms with d.

Columns and labels:
IgG Anti-Ebola = type: binding
αVβ3 Integrin = αVβ3 Integrin (Homo sapiens, UniProt P05106+P06756); details: Table 1 adapted from Zhang et al.; not among the SPR-measured affinities; cited from earlier work
IgG Anti-HIV = type: binding
IgE Anti-DNP = type: binding, mouse
DNA template = experiment: Rolling-circle amplification of a DNA template, DNA gel of polymerization product; type: biochemical; details: polymerase bound by two streptavidin molecules; versus native enzyme with exonuclease activity deleted
Description: To confirm that the modified polymerase was still active, rolling-circle amplification of a DNA template was carried out with the molecule 35 as bound by two streptavidin molecules.

αVβ3 Integrin, sequence (P06756 31-889 limits assumed): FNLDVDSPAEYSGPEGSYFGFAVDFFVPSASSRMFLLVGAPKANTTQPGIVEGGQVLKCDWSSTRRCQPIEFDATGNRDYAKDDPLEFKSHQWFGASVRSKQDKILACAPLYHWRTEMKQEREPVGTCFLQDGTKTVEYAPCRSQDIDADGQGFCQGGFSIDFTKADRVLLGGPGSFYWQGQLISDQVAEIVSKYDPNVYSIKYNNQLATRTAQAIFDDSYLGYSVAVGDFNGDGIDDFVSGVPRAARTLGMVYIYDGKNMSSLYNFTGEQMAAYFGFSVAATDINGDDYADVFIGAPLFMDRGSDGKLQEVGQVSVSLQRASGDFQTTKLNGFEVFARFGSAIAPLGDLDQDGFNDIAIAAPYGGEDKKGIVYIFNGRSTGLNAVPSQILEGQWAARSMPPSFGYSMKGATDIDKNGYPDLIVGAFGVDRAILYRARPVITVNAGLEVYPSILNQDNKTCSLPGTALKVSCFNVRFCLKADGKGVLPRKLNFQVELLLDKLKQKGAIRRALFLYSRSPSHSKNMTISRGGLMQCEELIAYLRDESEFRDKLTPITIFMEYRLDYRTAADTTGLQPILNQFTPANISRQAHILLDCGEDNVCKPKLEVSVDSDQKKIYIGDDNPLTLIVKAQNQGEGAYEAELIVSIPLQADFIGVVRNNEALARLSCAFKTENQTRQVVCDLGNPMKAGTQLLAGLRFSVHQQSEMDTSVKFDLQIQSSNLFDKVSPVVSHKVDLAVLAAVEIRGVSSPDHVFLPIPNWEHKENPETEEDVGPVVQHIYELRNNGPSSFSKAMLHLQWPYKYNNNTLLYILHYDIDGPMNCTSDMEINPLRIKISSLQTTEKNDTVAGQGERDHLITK
αVβ3 Integrin, sequence (P06756 891-1048 partner limits assumed): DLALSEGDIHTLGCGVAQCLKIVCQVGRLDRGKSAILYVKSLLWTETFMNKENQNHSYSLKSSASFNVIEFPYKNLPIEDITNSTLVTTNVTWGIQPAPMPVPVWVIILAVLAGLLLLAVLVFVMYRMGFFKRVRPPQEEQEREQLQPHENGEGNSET
αVβ3 Integrin, sequence (P05106 27-788): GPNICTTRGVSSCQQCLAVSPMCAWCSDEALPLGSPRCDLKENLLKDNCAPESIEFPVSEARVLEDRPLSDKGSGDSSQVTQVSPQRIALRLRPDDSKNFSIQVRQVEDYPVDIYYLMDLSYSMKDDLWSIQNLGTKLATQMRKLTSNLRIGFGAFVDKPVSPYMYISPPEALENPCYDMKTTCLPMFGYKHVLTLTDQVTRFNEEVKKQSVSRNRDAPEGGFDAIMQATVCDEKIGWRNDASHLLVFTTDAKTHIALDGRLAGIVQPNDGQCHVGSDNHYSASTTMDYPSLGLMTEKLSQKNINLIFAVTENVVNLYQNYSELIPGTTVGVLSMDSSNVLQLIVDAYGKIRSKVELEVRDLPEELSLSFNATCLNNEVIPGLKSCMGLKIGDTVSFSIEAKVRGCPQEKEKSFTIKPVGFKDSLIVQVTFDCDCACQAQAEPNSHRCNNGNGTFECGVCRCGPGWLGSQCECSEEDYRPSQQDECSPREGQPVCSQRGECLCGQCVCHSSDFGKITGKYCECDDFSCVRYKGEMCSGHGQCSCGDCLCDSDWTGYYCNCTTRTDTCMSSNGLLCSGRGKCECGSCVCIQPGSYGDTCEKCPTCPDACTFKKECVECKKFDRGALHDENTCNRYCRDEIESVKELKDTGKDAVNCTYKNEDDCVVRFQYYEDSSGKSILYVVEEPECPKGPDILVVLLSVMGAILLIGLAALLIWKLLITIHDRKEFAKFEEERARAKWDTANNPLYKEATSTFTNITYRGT

With CHNTPVYKLDISEATQV as the molecule, how does the Kd (IgG Anti-Ebola) read?
The Kd was 1400 nM.

Which Kd (αVβ3 Integrin) does the source give for cyclo(RGD[dF]C) [Cyclic RGDfC] here?
The Kd was roughly 10 nM.

With CALDRWEKIRLR as the molecule, how does the Kd (IgG Anti-HIV) read?
The Kd was 240 nM.

For HSCH2CH2-dinitrophenol, which Kd (IgE Anti-DNP) is on record?
The Kd was 65 nM.

B1: bis-biotinylated polymerase: exonuclease-deleted ϕ29 polymerase with biotinylated Avitags inserted between G111/K112 and E279/D280 (protein)
chain: MKHMPRKMYSCAFATTTKVEDCRVWAYGYMNIEDHSEYKIGNSLDEFMAWVLKVQADLYFHNLKFDGAFIINWLERNGFKWSADGLPNTYNTIISRMGQWYMIDICLGYKGGLNDIFEAQKIEWHEKRKIHTVIYDSLKKLPFPVKKIAKDFKLTVLKGDIDYHKERPVGYKITPEEYAYIKNDIQIIAEALLIQFKQGLDRMTAGSDSLKGFKDIITTKKFKKVFPTLSLGLDKEVRYAYRGGFTWLNDRFKEKEIGEGMVFDVNSLYPAQMYSRLLPYGEPIVFEGKYVWDEGLNDIFEAQKIEWHEDYPLHIQHIRCEFELKEGYIPTIQIKRSRFYKGNEYLKSSGGEIADLWLSNVDLELMKEHYDLYNVEYISGLKFKATTGLFKDFIDKWTYIKTTSEGAIKQLAKLMLNSLYGKFASNPDVTGKVPYLKENGALGFRLGEEETKDPVYTPMGVFITAWARYTTITAAQACYDRIIYCDTDSIHLTGTEIPDVIKDIVDPKKLGYWAHESTFKRAKYLRQKTYIQDIYMKEVDGKLVEGSPDDYTDIKFSVKCAGMTDKIKKEVTFENFKVGFSRKMKPKPVQVPGGVVLVDDTFTIK
Which polymerase activity (DNA template) does the source give for B1 here?
Its polymerase activity is “comparable to that of the native enzyme”.
